Results: publication PMC9529944, “Molecular asymmetry of a photosynthetic supercomplex from green sulfur bacteria” (Nature Communications, 2022)

B1: Fenna-Matthews-Olson (FMO) complex (natural protein, UniProt Q46393 1-366, looked up)
chain: MALFGSNDVTTAHSDYEIVLEGGSSSWGKVKARAKVNAPPASPLLPADCDVKLNVKPLDPAKGFVRISAVFESIVDSTKNKLTIEADIANETKERRISVGEGMVSVGDFSHTFSFEGSVVNLFYYRSDAVRRNVPNPIYMQGRQFHDILMKVPLDNNDLIDTWEGTVKAIGSTGAFNDWIRDFWFIGPAFTALNEGGQRISRIEVNGLNTESGPKGPVGVSRWRFSHGGSGMVDSISRWAELFPSDKLNRPAQVEAGFRSDSQGIEVKVDGEFPGVSVDAGGGLRRILNHPLIPLVHHGMVGKFNNFNVDAQLKVVLPKGYKIRYAAPQYRSQNLEEYRWSGGAYARWVEHVCKGGVGQFEILYAQ
notes: FMO bacteriochlorophyll a protein of Chlorobaculum tepidum TLS; homotrimer, each monomer with eight BChl a; Two trimers (FMO1, FMO2) of the same protein sit on one reaction center in the RC-FMO2 structure; they are one molecule here; also called FMO trimer; FMO1
B2: PscD (natural protein, UniProt Q8KEP5 1-143, looked up)
chain: MQPQLSRPQTASNQVRKAVSGPWSGNAVHKAEKYFITSAKRDRDGKLQIELVPASGRRKLSPTPEMIRRLIDGEIEIYILTTQPDIAIDMNKEIIDMENRYVIDFDKRGVKWTMREIPVFYHEGKGLCVELHNKIYTLDQFFK
notes: PscD subunit of the reaction center of Chlorobaculum tepidum; also called PscD subunit

Experiments:
[1] = target: T1, GsbRC core (PscA dimer) in the RC-FMO2 photosynthetic supercomplex (Chlorobaculum tepidum, UniProt Q8KAY0); experiment: cryo-EM structure, RC-FMO2 […] Å; assay type: binding
T1 construct: gene CT2020; native complex from membranes of C. tepidum, DDM-solubilized, no tags; homodimeric PscA core with associated subunits; PscE 59 residues modeled; with Photosystem P840 reaction center iron-sulfur protein; Cytochrome c (photosystem P840 reaction center cytochrome c-551); Photosystem P840 reaction center protein PscD; PscE, accessory membrane subunit; Ric1 protein; Bacteriochlorophyll a protein

PscB = target: T2, PscB (Chlorobaculum tepidum, UniProt Q8KAY1); experiment: cryo-EM structure, RC-FMO2 […] Å; assay type: binding; conditions: FA and FB clusters
T2 construct: native subunit in the RC-FMO2 supercomplex, no tags; loop 17-129 unmodelled; with Photosystem P840 reaction center, large subunit

[2] = target: the molecule itself; experiment: cryo-EM structure; single-particle cryo-EM of the native supercomplex extracted with DDM from C. tepidum membranes; RC-FMO2 at 3.08 Å (local 2.92 and 3.06 Å), RC-FMO1 at 3.49 Å; 20 mM Tris-Cl pH 8.0, 200 mM NaCl, 0.17 mM DDM
[3] = target: B1; experiment: as above; conditions: both partners purified

CC(C)=CCC/C(C)=C/C=C/C(C)=C/C=C/C(C)=C/C=C/C=C(C)/C=C/C=C(C)/C=C/c1c(C)ccc(C)c1C [F26, chlorobactene]
cryo-EM structure, RC-FMO2 3.08 Å ([1]; three molecules in RC core): four Chl a, three chlorobactenes (F26)

[S]1[Fe]2[S]3[S]4[Fe][S]2[Fe]4[Fe]13 [SF4, iron-sulfur cluster]
cryo-EM structure, RC-FMO2 3.08 Å (PscB): Cartoons are the protein residues that interact with the FeS clusters | cryo-EM structure, RC-FMO2 3.08 Å ([1]; FX cluster at PscA dimer): The FeS clusters and P840 dimer that drive the ETC in RC-FMO2 are arranged similarly

B1
binding result [2]: binds

B2
binding result [3]: binds
